{"source": "patent US20130005802A1", "about": "“TREATMENT OF WNT/FRIZZLED-RELATED DISEASES” (priority 2009, published 2013)", "key": {"β-catenin [1]": {"tested_on": "β-catenin", "test": "Immunoblot of Wnt3A-stimulated β-catenin stabilization in U2OS cells", "type": "cell-based", "excerpt": "After treatment, cytosolic fraction as well as cellular membrane were isolated as described (Mikels, A. J., et al. PLoS Biol 2006, 4, e115, incorporated herein by reference in its entirety). Immunoblots using β-catenin or Dishevelled-2 antibody were used to detect the respective protein levels in cytosol or on membrane, with β-actin immunoblots used for loading controls.\nThe accumulation of cytosolic β-catenin is a measure of canonical Wnt signaling (Mikels, A. J., and Nusse, R. PLoS Biol 2006, 4, e115, incorporated herein by reference)."}, "[2]": {"tested_on": "peripheral blood mononuclear cells (PBMCs)", "type": "cell-based", "conditions": "human, 3 days", "procedure": "(§1) After 3 days incubation, all cells were harvested with 0.05% trypsin/EDTA and spun down by centrifugation. Cells were labeled with biotin-conjugated Annexin V, and then stained with 7-AAD and Streptavidin-APC. Samples were acquired by FACSCalibur machine (BD Bioscience) and analyzed with CellQuest software. Cells were analyzed for expression of Annexin V as a marker of apoptosis.\n(§2) Annexin V may be used as a marker for apoptosis and other forms of cell death. […] After 3 days of incubation, all cells were harvested with 0.05% trypsin/EDTA, labeled with biotin-conjugated Annexin V, and then stained with 7-AAD and streptavidin-APC. Samples were acquired by FACSCalibur, and percentages of annexin V-positive cells were analyzed and plotted as shown in FIG. 11. Cells were analyzed for expression of Annexin V as a marker of apoptosis."}, "β-catenin [3]": {"tested_on": "β-catenin", "test": "Immunohistochemistry of β-catenin in treated tumors", "type": "in vivo, NOD/SCID mice", "conditions": "200 mg/kg, 2 or 3 weeks", "procedure": "(§3) Paraffin-embedded specimens were cut into 4 μm-thick of sequential sections. After dewaxing in xylene and rehydrating stepwise in ethanol, sections were subjected to heat-induced antigen retrieval. Endogenous peroxidase activity was blocked with 3% H2O2, and non-specific binding was blocked with non-immune horse sera. Sections were then incubated with primary antibodies overnight at 4C. Anti-β-catenin (sc-65483, Santa Cruz Biotechnology, Inc., Santa Cruz, Calif.) and anti-Dvl-2 (sc-8026, Santa Cruz Biotechnology, Inc., Santa Cruz, Calif.) monoclonal antibodies were used at (1:50) dilution. After rinsing the sections were incubated with the biotinylated secondary antibody (1:200 dilution; Dakopatts, Copenhagen, Denmark) for 30 min at room temperature and then with the avidin-biotin peroxidase complex from the Vector Elite ABC kit (Vector Laboratories, Burlingame, Calif.) according to the manufacturer's instructions. Visualization was achieved using 3,3′-diaminobenzidine tetrahydrochloride and H2O2. Specimens were counterstained with hematoxylin.\n(§4) NOD/SCID mice were implanted with colorectal cancer explants or cell lines. […] Tumors were excised and fixed with 10% neutralized, buffered formalin. Paraffin-embedded specimens were cut into 4 μm-thick of sequential sections. After dewaxing and rehydration, heat-induced antigen retrieval was performed. […]"}, "HCT116 cells": {"tested_on": "HCT116 cells", "test": "Flow-based cytotoxicity assay (annexin V), HCT116", "type": "cell-based", "conditions": "3 days, 0.2-20 μM", "procedure": "as §1, §2"}, "Dvl-2 [4]": {"tested_on": "Dvl-2", "test": "Immunohistochemistry of Dvl-2 in treated tumors", "type": "in vivo, NOD/SCID mice", "conditions": "200 mg/kg, 2 or 3 weeks", "procedure": "as §3, §4"}, "fibroblasts": {"tested_on": "fibroblasts", "test": "Flow-based cytotoxicity assay (annexin V), fibroblasts", "type": "cell-based", "conditions": "3 days, 0.2-20 μM", "procedure": "as §1, §2"}, "CRC119 tumor cells": {"tested_on": "CRC119 tumor cells", "test": "Flow-based cytotoxicity assay (annexin V), CRC119", "type": "cell-based", "conditions": "3 days, 0.2-20 μM", "procedure": "as §1, §2"}, "CRC explants": {"tested_on": "CRC explants", "test": "MTT assay, CRC explants", "type": "cell-based", "conditions": "72 hr", "procedure": "AsPC-1 tumor cells were cultured with T cells at a 1:5 ratio for 7 days in the presence of MEDI-565 or Cont BiTE (100 ng/mL). On day 7, floating cells were discarded and only adherent AsPC-1 cells were harvested with 0.05% trypsin/EDTA and washed with PBS three times. 1×10^4 AsPC-1 tumor cells were added to each well of 96 well flat bottom plates in 200 μL of complete RPMI1640 medium. The cells were allowed to adhere to the plates overnight at 37° C. (day 0) and were further incubated for 1, 2, 4 or 7 days. 20 μL of 10×MTT (3-[4,5-dimethylthiazol-2-yl]-2,5-diphenyl-tetrazolium bromide, 5 mg/mL) solution was added to each well, and incubated at 37° C. for 2 hr. The adherent cells were lysed with 150 μL of dimethyl sulfoxide (DMSO) and the optical density (OD) at 550 nm was measured.\nThe cells were allowed to adhere to the plates overnight at 37° C. (day 0). […] Then 20 μL of 10×MTT solution was added to each well and incubated at 37° C. for 2 hr. The adherent cells were lysed with 150 μL of DMSO, and then optical density (OD) at 562 nm was measured. DMSO or culture medium was used as a control.\nAn MTT assay was performed after 72 hr incubation. After cell lysis with DMSO, the optical density (OD) at 562 nm was measured."}, "Dvl-2 [5]": {"tested_on": "Dvl-2", "test": "Western blot of cytosolic Dvl-2 in colorectal cancer cells", "type": "cell-based", "procedure": "CRC explants and colorectal cancer cell lines were cultured in 6-well plates. […] After washing cells with PBS three times, hypotonic lysis buffer consist of 10 mM Tris-HCl, pH7.4 and 0.2 mM MgCl2, supplemented with 1× Halt Protease and Phosphatase Inhibitor Cocktail (Thermo Scientific Pierce Protein Research Products, Rockford, Ill.) were applied to make cell lyates for Western Blot.\nAfter washing cells with PBS, cell lysates were made with hypotonic lysis buffer."}}, "note": "pIC50: −log10 of the molar value."}
{"smiles": "O=C(Nc1ccc([N+](=O)[O-])cc1Cl)c1cc(Cl)ccc1O", "note": "[niclosamide]", "values": [{"measurement": "Wnt3A-stimulated cytosolic β-catenin stabilization", "setting": "β-catenin [1]; 7.5 μM, cytosol", "value": "prevented"}, {"measurement": "membrane-bound β-catenin levels", "setting": "β-catenin [1]; 7.5 μM, membrane", "value": "relatively unchanged"}, {"measurement": "concentration range of the inhibitory effect on β-catenin stabilization", "setting": "β-catenin [1]; immunoblot, n=3", "value": "1 to 7.5", "unit": "µM"}, {"measurement": "pIC50", "setting": "β-catenin [1]; immunoblot, n=3, read-out: half maximal inhibition of Wnt3A signaling (β-catenin stabilization)", "value": "~6.00"}, {"measurement": "doses at which apoptosis was shown (annexin V)", "setting": "[2]", "value": "10 to 20", "unit": "µM"}, {"measurement": "cytoplasmic expression of β-catenin in tumors vs control", "setting": "β-catenin [3]", "value": "decreased levels"}, {"measurement": "concentration with steep increase of annexin V-positive cells", "setting": "HCT116 cells", "value": 0.2, "unit": "µM"}, {"measurement": "cytoplasmic expression of Dvl-2 in tumors vs control", "setting": "Dvl-2 [4]", "value": "decreased levels"}, {"measurement": "apoptotic cell death (annexin V)", "setting": "fibroblasts", "value": "did not show a significant increase"}, {"measurement": "concentration with steep increase of annexin V-positive cells", "setting": "CRC119 tumor cells", "value": 1, "unit": "µM"}, {"measurement": "killing of CRC020 explant cells", "setting": "CRC explants; 5 μM", "value": "killed significantly"}, {"measurement": "cytotoxicity (MTT, OD 562 nm) in 8 CRC explants", "setting": "CRC explants; 0.4, 2, 10 μM", "value": "cytotoxic effects"}, {"measurement": "cytosolic Dvl-2 expression", "setting": "Dvl-2 [5]; CRC057 and HCT116, 1, 5, 10 μM, 18 hr", "value": "downregulated"}, {"measurement": "cytosolic Dvl-2 expression", "setting": "Dvl-2 [5]; HT29 cells", "value": "milder change"}]}
